Activity calls are given as the source filed them. No cut-off for these calls is given here.
Tests used:
Beta-secretase 1 [1] = target: T1, Beta-secretase 1 (Homo sapiens, UniProt P56817); assay: Inhibition of human recombinant BACE1 after 60 mins by fluorescence assay
Beta-secretase 1 [2] = target: T1, Beta-secretase 1; assay: Inhibition of human recombinant BACE1 at 100 to 500 uM after 60 mins by fluorescence assay
Beta-secretase 1 [3] = target: T1, Beta-secretase 1
Description: Competitive inhibition of human recombinant BACE1 by Lineweaver-Burke plot analysis

T1 sequence (P56817 whole entry): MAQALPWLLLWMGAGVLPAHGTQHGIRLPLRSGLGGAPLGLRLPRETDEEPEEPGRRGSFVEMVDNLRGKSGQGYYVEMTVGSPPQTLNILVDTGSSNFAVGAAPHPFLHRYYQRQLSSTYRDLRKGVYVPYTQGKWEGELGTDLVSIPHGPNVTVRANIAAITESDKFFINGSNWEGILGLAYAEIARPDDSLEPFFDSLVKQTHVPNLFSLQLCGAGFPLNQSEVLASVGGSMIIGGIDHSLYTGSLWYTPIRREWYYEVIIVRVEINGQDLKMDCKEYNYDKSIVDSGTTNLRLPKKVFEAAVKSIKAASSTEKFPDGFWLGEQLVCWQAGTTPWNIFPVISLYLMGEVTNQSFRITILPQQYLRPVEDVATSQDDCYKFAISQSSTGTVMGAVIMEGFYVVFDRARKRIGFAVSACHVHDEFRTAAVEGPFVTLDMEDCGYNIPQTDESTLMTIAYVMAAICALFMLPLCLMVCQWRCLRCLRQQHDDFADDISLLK

Row | Structure (SMILES) | IC50 (Beta-secretase 1 [1]) [µM] | inhibition (Beta-secretase 1 [1]) | inhibition (Beta-secretase 1 [2]) | Kic (Beta-secretase 1 [3]) [µM]
1 | CC(C)=CCOc1c(CCC(=O)O)c(O)cc2occc12 | 186 | Dose-dependent effect |  | 
2 | O=c1ccc2cc3ccoc3c(O)c2o1 |  | Dose-dependent effect | inactive | 
3 | CC(C)=CCOc1c2ccoc2cc2oc(=O)ccc12 [ISOIMPERATORIN] | 244 | Dose-dependent effect |  | 
4 | CC(C)=CCOc1c2occc2cc2ccc(=O)oc12 [PENTOSALEN] | 91.8 | Dose-dependent effect |  | 
5 | COC(=O)CCc1c(O)cc2occc2c1OCC=C(C)C | 30.5 | Dose-dependent effect |  | 11.3
6 | COc1cc2occc2c(OCC=C(C)C)c1CCC(=O)O | 203 | Dose-dependent effect |  | 
7 | COC(=O)CCc1c(OC)cc2occc2c1OCC=C(C)C | 16.2 | Dose-dependent effect |  | 
